According to ChEMBL document CHEMBL6071181, “Discovery of ZLC491 as a Potent, Selective, and Orally Bioavailable CDK12/13 PROTAC Degrader” (J Med Chem, 2024):
Values belong to the molecule of their own block, whether it stands above or below them. Active and inactive are the calls of the source. The rule behind the calls is not given here.

Assays:
[1] = target: T1, Protein cereblon/Cyclin-dependent kinase 12 (Homo sapiens) (UniProt Q9NYV4+Q96SW2); assay: PROTAC activity at CRBN/CDK12 in human MDA-MB-231 cells assessed as induction of CDK12 degradation at 1 uM incubated for 10 hrs by immunoblotting analysis; format: cell-based
Target sequence in this assay (Q96SW2 whole entry, looked up): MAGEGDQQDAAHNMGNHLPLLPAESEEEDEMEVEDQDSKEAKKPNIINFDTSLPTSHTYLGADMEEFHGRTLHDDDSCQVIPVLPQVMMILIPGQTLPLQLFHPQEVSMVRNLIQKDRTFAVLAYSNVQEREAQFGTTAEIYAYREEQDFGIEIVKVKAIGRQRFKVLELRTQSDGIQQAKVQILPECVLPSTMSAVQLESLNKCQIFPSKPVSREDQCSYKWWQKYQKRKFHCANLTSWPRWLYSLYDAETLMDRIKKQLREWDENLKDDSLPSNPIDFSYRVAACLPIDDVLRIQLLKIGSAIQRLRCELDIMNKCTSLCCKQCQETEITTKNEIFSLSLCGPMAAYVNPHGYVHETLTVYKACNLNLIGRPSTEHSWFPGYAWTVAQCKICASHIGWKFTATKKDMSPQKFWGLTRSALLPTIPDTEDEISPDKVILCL
Target sequence in this assay (Q9NYV4 whole entry, looked up): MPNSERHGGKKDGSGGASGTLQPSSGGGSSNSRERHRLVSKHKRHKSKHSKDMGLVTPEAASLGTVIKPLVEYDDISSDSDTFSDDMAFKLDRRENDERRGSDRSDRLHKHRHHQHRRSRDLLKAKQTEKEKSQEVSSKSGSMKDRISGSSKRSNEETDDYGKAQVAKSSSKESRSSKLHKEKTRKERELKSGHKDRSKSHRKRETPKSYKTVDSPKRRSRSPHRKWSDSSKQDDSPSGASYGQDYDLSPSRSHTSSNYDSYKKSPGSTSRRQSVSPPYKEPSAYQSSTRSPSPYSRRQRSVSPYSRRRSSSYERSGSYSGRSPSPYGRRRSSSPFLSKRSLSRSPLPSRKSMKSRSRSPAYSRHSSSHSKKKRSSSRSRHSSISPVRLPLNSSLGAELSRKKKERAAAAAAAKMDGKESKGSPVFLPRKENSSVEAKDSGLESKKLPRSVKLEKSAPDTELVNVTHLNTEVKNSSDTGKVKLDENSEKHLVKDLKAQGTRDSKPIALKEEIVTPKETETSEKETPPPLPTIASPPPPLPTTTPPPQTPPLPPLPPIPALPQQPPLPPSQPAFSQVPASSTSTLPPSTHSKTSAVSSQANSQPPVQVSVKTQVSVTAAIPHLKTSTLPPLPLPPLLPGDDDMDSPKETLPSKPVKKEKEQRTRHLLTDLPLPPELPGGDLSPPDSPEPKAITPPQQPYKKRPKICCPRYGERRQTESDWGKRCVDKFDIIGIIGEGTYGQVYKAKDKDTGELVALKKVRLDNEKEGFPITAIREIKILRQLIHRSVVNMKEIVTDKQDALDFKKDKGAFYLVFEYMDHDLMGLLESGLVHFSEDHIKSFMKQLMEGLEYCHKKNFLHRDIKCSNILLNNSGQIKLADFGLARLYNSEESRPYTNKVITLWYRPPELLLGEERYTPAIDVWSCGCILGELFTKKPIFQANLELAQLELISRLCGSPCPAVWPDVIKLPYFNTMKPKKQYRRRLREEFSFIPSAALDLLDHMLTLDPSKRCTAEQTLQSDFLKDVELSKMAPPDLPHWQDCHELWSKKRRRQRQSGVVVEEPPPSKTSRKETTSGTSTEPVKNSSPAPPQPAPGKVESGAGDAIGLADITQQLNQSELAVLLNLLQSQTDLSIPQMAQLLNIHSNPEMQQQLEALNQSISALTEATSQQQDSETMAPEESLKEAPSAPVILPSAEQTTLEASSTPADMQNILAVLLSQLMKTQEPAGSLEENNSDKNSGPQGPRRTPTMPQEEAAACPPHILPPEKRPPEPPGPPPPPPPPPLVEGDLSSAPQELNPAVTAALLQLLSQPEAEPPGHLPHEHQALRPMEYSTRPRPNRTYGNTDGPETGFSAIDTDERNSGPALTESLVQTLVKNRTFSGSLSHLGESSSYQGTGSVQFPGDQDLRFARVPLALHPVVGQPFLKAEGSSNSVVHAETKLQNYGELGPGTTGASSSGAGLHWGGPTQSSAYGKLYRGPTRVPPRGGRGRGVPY

[2] = target: T2, Protein cereblon/Cyclin-dependent kinase 13 (Homo sapiens) (UniProt Q14004+Q96SW2); assay: PROTAC activity at CRBN/CDK13 in human MDA-MB-231 cells assessed as induction of CDK13 degradation at 1 uM incubated for 10 hrs by immunoblotting analysis; format: cell-based
Target sequence in this assay (Q14004 whole entry, looked up): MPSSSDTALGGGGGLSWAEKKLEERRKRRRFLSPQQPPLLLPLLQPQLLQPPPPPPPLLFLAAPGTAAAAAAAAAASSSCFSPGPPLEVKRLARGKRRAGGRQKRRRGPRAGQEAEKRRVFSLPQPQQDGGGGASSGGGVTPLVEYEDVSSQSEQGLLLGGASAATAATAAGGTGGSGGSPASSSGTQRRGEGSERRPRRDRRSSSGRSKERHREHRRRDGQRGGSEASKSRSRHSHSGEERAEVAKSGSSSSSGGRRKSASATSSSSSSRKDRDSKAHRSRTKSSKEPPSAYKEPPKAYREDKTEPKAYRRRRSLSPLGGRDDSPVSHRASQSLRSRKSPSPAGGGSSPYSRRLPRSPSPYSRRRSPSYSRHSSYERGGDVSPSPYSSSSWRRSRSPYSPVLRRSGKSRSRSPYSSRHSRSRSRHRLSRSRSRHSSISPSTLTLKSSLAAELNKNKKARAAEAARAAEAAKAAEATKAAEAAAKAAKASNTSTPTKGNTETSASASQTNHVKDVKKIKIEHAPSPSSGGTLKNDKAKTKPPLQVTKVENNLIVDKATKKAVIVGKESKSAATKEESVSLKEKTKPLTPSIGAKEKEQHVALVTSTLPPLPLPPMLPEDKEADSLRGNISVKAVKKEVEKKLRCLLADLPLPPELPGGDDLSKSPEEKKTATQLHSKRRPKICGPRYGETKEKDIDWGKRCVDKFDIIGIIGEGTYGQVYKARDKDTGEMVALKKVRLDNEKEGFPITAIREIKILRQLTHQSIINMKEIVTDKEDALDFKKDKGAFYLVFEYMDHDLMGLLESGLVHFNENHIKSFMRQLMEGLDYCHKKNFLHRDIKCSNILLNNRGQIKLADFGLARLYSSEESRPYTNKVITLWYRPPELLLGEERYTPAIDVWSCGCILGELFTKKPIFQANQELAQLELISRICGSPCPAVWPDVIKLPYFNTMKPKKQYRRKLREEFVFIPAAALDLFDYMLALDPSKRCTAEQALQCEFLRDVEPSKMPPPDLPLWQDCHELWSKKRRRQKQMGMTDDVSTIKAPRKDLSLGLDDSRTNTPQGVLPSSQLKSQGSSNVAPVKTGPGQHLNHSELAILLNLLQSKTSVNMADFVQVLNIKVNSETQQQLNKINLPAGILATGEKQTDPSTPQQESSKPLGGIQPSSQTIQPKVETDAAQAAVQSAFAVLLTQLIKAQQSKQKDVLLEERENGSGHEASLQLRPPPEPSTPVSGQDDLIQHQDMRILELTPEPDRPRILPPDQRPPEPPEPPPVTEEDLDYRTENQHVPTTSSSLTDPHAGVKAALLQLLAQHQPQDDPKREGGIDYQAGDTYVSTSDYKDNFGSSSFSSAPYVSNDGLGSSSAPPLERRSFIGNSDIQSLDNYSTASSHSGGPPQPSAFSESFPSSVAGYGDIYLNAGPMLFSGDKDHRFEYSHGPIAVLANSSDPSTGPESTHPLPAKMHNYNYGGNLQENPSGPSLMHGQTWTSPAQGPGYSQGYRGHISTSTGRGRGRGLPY
Target sequence in this assay (Q96SW2 whole entry, looked up): as the sequence (Q96SW2 whole entry, looked up) above

MDA-MB-231 = assay: Antiproliferative activity against human MDA-MB-231 cells assessed as inhibition of cell growth at 0.0001 to 100 uM incubated for 5 days by CCK8 assay; format: functional, cell-based; conditions: dose 0.0001-100 µM, time 5.0 day
HCC38 = assay: Antiproliferative activity against human HCC38 cells assessed as inhibition of cell growth at 0.0001 to 100 uM incubated for 5 days by CCK8 assay; format: functional, cell-based; conditions: dose 0.0001-100 µM, time 5.0 day
MDA-MB-436 = assay: Antiproliferative activity against human MDA-MB-436 cells assessed as inhibition of cell growth at 0.0001 to 100 uM incubated for 5 days by CCK8 assay; format: functional, cell-based; conditions: dose 0.0001-100 µM, time 5.0 day
MCF-10A = assay: Antiproliferative activity against human MCF-10A cells assessed as inhibition of cell growth at 0.0001 to 100 uM incubated for 5 days by CCK8 assay; format: toxicity, cell-based; conditions: 120 h, dose 0.0001-100 µM, time 5 day
HEK293 = assay: Antiproliferative activity against HEK293 cells assessed as inhibition of cell growth at 0.0001 to 100 uM incubated for 5 days by CCK8 assay; format: toxicity, cell-based; conditions: human, hek293, 120 h, dose 0.0001-100 µM, time 5 day
MRC5 = assay: Antiproliferative activity against human MRC5 cells assessed as inhibition of cell growth at 0.0001 to 100 uM incubated for 5 days by CCK8 assay; format: toxicity, cell-based; conditions: mrc5, 120 h, dose 0.0001-100 µM, time 5 day
[3] = target: T1, Protein cereblon/Cyclin-dependent kinase 12 (Homo sapiens); assay: PROTAC activity at CRBN/CDK12 in human MDA-MB-231 cells assessed as induction of CDK12 degradation at 0.3 uM incubated for 15 hrs by immunoblotting analysis relative to control; format: cell-based
Target sequence in this assay (Q96SW2 whole entry, looked up, chain 1 of 2): as the sequence (Q96SW2 whole entry, looked up) above
Target sequence in this assay (Q9NYV4 whole entry, looked up, chain 2 of 2): as the sequence (Q9NYV4 whole entry, looked up) above

[4] = target: T2, Protein cereblon/Cyclin-dependent kinase 13 (Homo sapiens); assay: PROTAC activity at CRBN/CDK13 in human MDA-MB-231 cells assessed as induction of CDK13 degradation at 0.3 uM incubated for 15 hrs by immunoblotting analysis relative to control; format: cell-based
Target sequence in this assay (Q96SW2 whole entry, looked up, chain 1 of 2): as the sequence (Q96SW2 whole entry, looked up) above
Target sequence in this assay (Q14004 whole entry, looked up, chain 2 of 2): as the sequence (Q14004 whole entry, looked up) above

[5] = Half-life in Sprague-Dawley rat at 2.5 mg/kg, iv measured after 24 hrs by LC/MS/MS analysis; format: ADME, organism-based; conditions: in vivo
[6] = Cmax in Sprague-Dawley rat at 2.5 mg/kg, iv measured after 24 hrs by LC/MS/MS analysis; format: ADME, organism-based; conditions: in vivo
[7] = AUC (0 to t) in Sprague-Dawley rat at 2.5 mg/kg, iv measured after 24 hrs by LC/MS/MS analysis; format: ADME, organism-based; conditions: in vivo
[8] = Half-life in Sprague-Dawley rat at 10 mg/kg, po measured after 24 hrs by LC/MS/MS analysis; format: ADME, organism-based; conditions: in vivo
[9] = Cmax in Sprague-Dawley rat at 10 mg/kg, po measured after 24 hrs by LC/MS/MS analysis; format: ADME, organism-based; conditions: in vivo
[10] = AUC (0 to t) in Sprague-Dawley rat at 10 mg/kg, po measured after 24 hrs by LC/MS/MS analysis; format: ADME, organism-based; conditions: in vivo

Activity [1]: inactive
Activity [2]: inactive
Molecule: CN1C(=O)CCC(N2C(=O)c3cc(F)c(N4CCC(N5CCN(c6ccc(N(C(=O)NCc7ccccc7)[C@H]7CC[C@H](Nc8ccc(C#N)cn8)CC7)cc6)CC5)CC4)cc3C2=O)C1=O (stereo partly specified)
Activity (MDA-MB-231): inactive
Activity (HCC38): inactive
Activity (MDA-MB-436): inactive
Activity (MCF-10A): Non-Toxic
Activity (HEK293): Non-Toxic
Activity (MRC5): Non-Toxic

Activity [3]: 35%
Activity [4]: 38%
Molecule: 3-benzyl-1-((1r,4r)-4-((5-cyanopyridin-2-yl)amino)cyclohexyl)-1-(4-(4-(1-(2-(2,6-dioxopiperidin-3-yl)-1,3-dioxoisoindolin-5-yl)azetidine-3-carbonyl)piperazin-1-yl)phenyl)urea

half-life [5]: 2.38 h
Cmax [6]: 2590 ng/mL
AUC(0-t) at 24 h [7]: 4720 ng·h/mL
half-life [8]: 3.04 h
Cmax [9]: 308 ng/mL
AUC(0-t) at 24 h [10]: 3110 ng·h/mL
Molecule: N#Cc1ccc(N[C@H]2CC[C@H](N(C(=O)NCc3ccccc3)c3ccc(N4CCN(C5CCN(c6ccc7c(c6)C(=O)N(C6CCC(=O)NC6=O)C7=O)CC5)CC4)cc3)CC2)nc1 (stereo partly specified)
